Data taken from article PMC5118709, “Identification of Polo-like kinase 1 interaction inhibitors using a novel cell-based assay” (Scientific Reports, 2016).
One block for each compound: values may come before it.

Assays:
GST-PBD367-603 of Plk1 = GST-PBD367-603 of Plk1 (Homo sapiens, UniProt P53350); test: fluorescence polarization assay PBD-phosphopeptide; settings: for FP - IC50 (μM) / IC50: Table S3; for IC50: read-out: FP - IC50
HeLa cells [1] = test: mitotic index assay (phospho-Histone H3) in HeLa cells; format: cell-based; settings: 25 μM
HeLa cells [2] = test: mitotic defect phenotypes by immunofluorescence; format: cell-based; settings: 10 μM, 7 h
Experimental: HeLa cells were treated with these compounds along with the known PBD inhibitors PPG, TQ, Poloxin and the KD inhibitor BI2536 as controls, and then stained against α-Tubulin, pericentrin (a centrosome marker) and DNA (Fig. 2D). In all cases, there was a marked increase in the frequency of disorganized spindles compared with DMSO-treated control cells. This is expected as Plk1 plays multiple roles in spindle assembly and maintenance. […] Cpd 69, an analog of compound 122, induced a similar phenotype at lower concentrations (data not shown). This phenotype was not seen after treatment with BI2536.
For the mitotic defect phenotypes, 25 200 HeLa cells were plated on poly-L-lysine coated round cover slips in 24-well plates. The day after, cells were treated for 7 hours, and then washed with PHEM buffer at 37 °C before fixation in PHEM buffer containing 4% formaldehyde for 20 minutes at 37 °C. Cells were washed three times with TBS-tween 0.1% and plate was kept overnight at 4 °C. Next steps were followed as previously described except that coverslips were incubated in a dark wet chamber with antibodies. Anti-pericentrin (diluted 1:1000; Abcam), anti-α-tubulin DM1A (diluted 1:500; Sigma-Aldrich), Alexa Fluor 488 anti-rabbit and Texas-Red anti-mouse (diluted 1:200; Invitrogen) were used. Coverslips were mounted on slide using Vectashield media containing DAPI (Vector Laboratories).
Images shown in Fig. 2D were acquired on an AxioImager microscope (Carl Zeiss) with a 100x oil objective (NA 1.4 DICIII) and an AxioCam HRM camera (Carl Zeiss) using AxioVision software (Carl Zeiss).

[3] = reaction with amino-protected amino acids (LC-MS); settings: room temperature
Experimental: Vinyl sulfones are reactive species that can alkylate substrates as a result of a nucleophilic attack on the distal carbon of the vinyl group. To evaluate the potential of Cpd 161 (vinyl sulfone) to react with proteins, we tested its reaction with nucleophilic amino acid side chains groups. […] To test whether Cpd 161 could react covalently with the PBD, we incubated them together and examined the molecular mass of the protein by SDS-PAGE (Fig. 7). […] Consistent with this idea, the extent of the shift depended on the concentration of Cpd 161 used (Fig. 7B) and also on the incubation time (Fig. 7C).
To a stirred solution of electrophile (0.02 mmol) and amino acid (1- 1.5eq) in DMF (0.3 ml) were added a few drops of a diluted aqueous solution of sodium bicarbonate. The reaction was monitored using an Agilent 6120 Quadrupole LC/MS system (Agilent Technologies). In all cases, the molecular ion of the product was observed.

GST-PBD367-603 of Plk1, sequence (P53350 367-603): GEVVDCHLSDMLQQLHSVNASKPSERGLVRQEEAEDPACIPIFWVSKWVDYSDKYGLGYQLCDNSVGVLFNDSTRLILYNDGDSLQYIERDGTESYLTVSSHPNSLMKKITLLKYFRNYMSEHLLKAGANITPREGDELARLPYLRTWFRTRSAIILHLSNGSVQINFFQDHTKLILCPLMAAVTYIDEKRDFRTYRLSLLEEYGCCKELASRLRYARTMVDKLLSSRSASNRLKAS

SMILES: Cc1cc(C(F)(F)F)cc(S(=O)(=O)CCOCc2cccc(Cl)c2)n1 [Cpd 159]
- FP - IC50 (μM) (GST-PBD367-603 of Plk1): No inhibition

SMILES: Cc1cc(C(F)(F)F)cc(S(=O)(=O)CCOS(C)(=O)=O)n1 [Cpd 164, 2-((6-methyl-4-(trifluoromethyl)pyridin-2-yl)sulfonyl) ethyl methanesulfonate]
- IC50 (GST-PBD367-603 of Plk1): 6 µM

SMILES: CC1=CC(=O)C(C(C)C)=C/C1=N\OC(=O)c1ccccc1C [Poloxin]
- mitotic index (HeLa cells [1]): around 20%
- 2 > pericentrin foci (percentage of cells) (HeLa cells [2]): 27 ± 21%
- Disorganized spindles (percentage of cells) (HeLa cells [2]): 61 ± 14%
- time to completion of reaction with amino-protected histidine [3]: approximately 10 minutes
- time to completion of reaction with amino-protected lysine [3]: approximately 10 minutes

Results, then the compound that gave them:

- IC50 (GST-PBD367-603 of Plk1): 75 µM
SMILES: Cc1cc(C(F)(F)F)cc(S(=O)(=O)CCOC(=O)C2CCCCC2)n1 [Cpd 160]

- FP - IC50 (μM) (GST-PBD367-603 of Plk1): No inhibition
SMILES: Cc1cc(C(F)(F)F)cc(SCCOC(=O)C2CCCCC2)n1 [Cpd 168]

- activity in the FP assay (GST-PBD367-603 of Plk1; SAR): completely abrogated activity
- FP - IC50 (μM) (GST-PBD367-603 of Plk1): No inhibition
SMILES: CCS(=O)(=O)c1cc(C(F)(F)F)cc(C)n1 [Cpd 169, 2-(ethylsulfonyl)-6-methyl-4-(trifluoromethyl)pyridine]
